Experimental data from patent publication US9315481B2, “Compounds and methods for treating leukemia” (INDIANA UNIVERSITY RESEARCH AND TECHNOLOGY CORPORATION, priority 2012, dated 2016).
Entries after “also recorded” stand apart in the source; their conditions may differ.

Experiments:
[1] = Maximum tolerated dose (MTD); conditions: in vivo, po
Description: Maximum tolerated dose (MTD). […] Animals were monitored for up to 14 days after termination of dosing.

STAT3, AP-1, and NF-κB = assay: DNA binding and transcriptional activity of the target TFs of Ref-1; format: biochemical; conditions: STAT3, AP-1, NF-κB
Method: Electrophoretic mobility shift assay (EMSA). […] For the experiment of APE1 interacting with STAT3, purified APE1 protein is reduced with 2 mM DTT (dithiothreitol) for 10 min and diluted to a final concentration of 4 mg with 0.4 mM DTT in PBS. Reduced APE1 is added to 15 mg nuclear extract as above. The final concentration of DTT in redox reactions is 0.04 mM.

Ref-1 = Ref-1 (Homo sapiens, UniProt P27695); assay: conventional redox EMSA assay; format: biochemical
Description: (§1) Biochemistry 50, 82-92 (2011). Nyland et al., Design and Synthesis of Novel Quinone Inhibitors Targeted to the Redox Function of Apurinic/Apyrimidinic Endonuclease 1/Redox Enhancing Factor-1 (Ape1/Ref-1). J Med Chem 53, 1200-1210 (2010). Kelley et al., Cancer Drug Discovery and Development (ed Rebecca G. Bagley) Springer (part of Springer Science+Business Media), 2010. Luo et al., Role of the multifunctional DNA repair and redox signaling protein Ape1/Ref-1 in cancer and endothelial cells: Small molecule inhibition of Ape1's redox function. Antioxid Redox Signal 10, 1853-1867 (2008). Georgiadis et al., Evolution of the redox function in mammalian Apurinic/apyrimidinic Mutation Research 643, 54-63 (2008).
Electrophoretic mobility shift assay (EMSA). EMSAs are performed as previously described (Georgiadis, (2008) #15789) with the some modifications. Briefly, for super-shift assay, 6 μg STAT3 antibody (Santa Cruz Biotechnology, Inc, Santa Cruz, Calif.) is pre-incubated with 15 mg nuclear extract from PaCa-2 cells (treated with 50 ng/mL IL-6 for 2 hrs in 2% serum), followed by 1 μg/mL poly(dI-dC).poly(dI-dC) (Amersham Biosciences, Piscataway, N.J.) and 0.1 pmol 5′HEX-labeled double-stranded oligonucleotide DNA (Midland Certified Reagent Company, Midland, Tex.) containing the STAT3 direct repeat consensus sequence for 15 min (Preston, (2005)). For the experiment of APE1 interacting with STAT3, purified APE1 protein is reduced with 2 mM DTT (dithiothreitol) for 10 min and diluted to a final concentration of 4 mg with 0.4 mM DTT in PBS. Reduced APE1 is added to 15 mg nuclear extract as above. The final concentration of DTT in redox reactions is 0.04 mM.

TAIL7 cells = assay: standard cell survival assay (ATP assay) of TAIL7 cells; format: cell-based; conditions: Homo sapiens, 96 h
Description: The compounds described herein decrease survival of leukemia cells.

STAT3 = assay: activation status of signaling pathways in T-ALL; format: cell-based
Method: Western blot analysis. For whole cell lysates, cells are harvested, lysed in RIPA buffer (Santa Cruz Biotechnology; Santa Cruz, Calif.), and protein is quantified and electrophoresed. Nuclear and cytoplasmic extracts are isolated using a conventional method (See, Jackson, (2006)). Immunoblotting is performed using the following antibodies: APE1 (Novus Biologicals; Littleton, Colo.), STAT1, STAT3, STAT5, p-STAT1(Y701), p-STAT3(Y705), p-STAT5 (Y694) (Cell Signaling; Danvers, Mass.), and tubulin (Sigma Aldrich) or GAPDH (Santa Cruz).
Biochemistry. […] That result is in contrast to what is observed with other compounds such as PI3K/Akt or mTOR.

refractory T-ALL cells = assay: xenograft model of leukemia; format: in vivo, NSG mice; conditions: b.i.d., one cycle of 5 days; for circulating blasts (human CD45+ cells in peripheral blood): p<0.05 vs vehicle
Method: Xenograft models of childhood relapse, refractory ALL. The antileukemia efficacy of Ref-1 redox blockade by the compounds described herein is evaluated in xenograft models of human ALL. In a first phase, the xenograft model with TAIL7 cells is used to test the therapeutic efficacy of the test compound as monotherapy, and in dual-agent regimens combining test compound with agents used as frontline chemotherapy for T-ALL (Vincristine; Doxorubicin; Dexamethasone) and for relapse T-ALL (Methotrexate). […] Such models of childhood ALL are used in immunodeficient mice (NOD/SCID: terminal leukemia in 70-120 d; NSG: terminal leukemia in 28-35 days with TAIL7 cells), including specimens from relapsed and infant ALL.
Xenografts of pediatric relapse T-cell leukemia: TAIL7 cells or cells from patients with relapse T-ALL (high cellularity; ≧90% BM involvement) will be used for the xenografts; patient specimens will be provided by Dr. Batra, according with IRB regulations. Leukemia cells (1×10^6 TAIL7 cells; 2-3×10^6 patient cells/mice) will be transplanted IV into NSG mice (7-9 wk old). 19, 24 Mice will be monitored weekly for presence of human blasts in the PB, by flow cytometry.
NSG mice (n=5/group) transplanted with refractory T-ALL cells. […] At the end of treatment, frequency of human CD45+ cells was performed in the peripheral blood (PB) and in the bone marrow (BM). Animals are sacrificed for analysis.

[2] = test system: Jurkat, SupT1, MOLT4, and HPB-ALL cell lines; assay: viability of relapse T-ALL cell lines; format: cell-based; conditions: Homo sapiens; immortalized lines derived from relapse T-ALL patients
Description: (§2) The compounds described herein are effective against leukemia cells harvested from the bone marrow (BM), thymus (T) or spleen (S). Cells are harvested from the bone marrow (BM), thymus (T) or spleen (S) of mice with terminal Notch (ICN)-induced T-ALL, as determined in a conventional ATP assay (viability at 96 hrs) of the leukemia cells cultured with IL-7. […] Similar inhibition is observed in immortalized Jurkat, SupT1, MOLT4, and HPB-ALL cell lines derived from relapse T-ALL patients, with IC50s from 10-30 μM. Relapse T-ALL lines (Jurkat, SupT1, MOLT4, and HPB-ALL) are reportedly resistant to treatment with glucocorticoids. The compounds described herein are also effective against TAIL7-Dexamethasone resistant cells, which show reduced sensitivity to inhibitors of other leukemia-associated signaling pathways (such as PI3K/Akt, mTOR), and to cytotoxic chemotherapy drugs.

Survivin and Bcl-xL mRNA = assay: quantitative PCR of survival genes; format: cell-based; conditions: after 24 h at doses between 25-40 μM
Description: The compounds described herein caused a substantial downregulation of survival genes regulated by STAT3 and NF-κB, such as Survivin, Bcl-xL, and miR-21.

T-ALL cells [3] = assay: Annexin V/PI assay of apoptosis; format: cell-based; conditions: E3330 […] μM or 40 μM, d1 to d5
Description: The compounds described herein cause apoptosis of leukemia cells, including leukemia T-ALL cells.

[4] = test system: T-ALL lines from a murine model of T-cell leukemia induced by oncogenic Notch; assay: ATP viability assay of leukemia cells from murine Notch-induced T-ALL; format: cell-based; conditions: Mus musculus, T-ALL lines from mice with terminal Notch-induced disease
Description: as §2

leukemia cells = assay: leukemia cell survival; format: cell-based; conditions: primary cells from ALL patients, relapsed T-ALL, cells from murine Notch-induced leukemia
Method: as §1, with “The activity of other selective Ref-1 redox inhibitors are analyzed against leukemia cells according to conventional redox EMSA assays. See, Su, D. et al. Interactions of APE1 with a redox inhibitor: Evidence for an alternate conformation of the enzyme. Biochemistry” for “Biochemistry”

T-ALL cells [5] = assay: potentiation of conventional drugs, ATP assay; format: cell-based; conditions: fixed dose 20 μM, compared to vehicle
Description: The compounds described herein potentiate the efficacy of conventional drugs for treating leukemia, such as doxorubicin and STATTIC. […]

Ref-1, sequence (P27695 whole entry): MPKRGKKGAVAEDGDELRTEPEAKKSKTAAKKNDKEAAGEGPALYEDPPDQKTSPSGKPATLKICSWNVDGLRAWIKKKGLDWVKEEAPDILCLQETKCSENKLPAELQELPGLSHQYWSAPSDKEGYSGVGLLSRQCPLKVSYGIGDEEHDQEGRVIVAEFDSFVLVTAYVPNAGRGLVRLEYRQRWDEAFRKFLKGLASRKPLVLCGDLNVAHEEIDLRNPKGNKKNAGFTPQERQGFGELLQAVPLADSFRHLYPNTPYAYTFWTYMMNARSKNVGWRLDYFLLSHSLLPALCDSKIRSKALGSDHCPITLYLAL

SMILES	MTD [1]	DNA binding and transcriptional activity of the target TFs of Ref-1 (STAT3, AP-1, and NF-κB)	IC50 (Ref-1)	IC50 (TAIL7 cells)	activation status of other signaling pathways involved in T-ALL (STAT3)	phosphorylation state and nuclear translocation of STAT3 (STAT3)	frequency of CD45+ in the BM (refractory T-ALL cells; 25 mg/kg/d)	circulating blasts (human CD45+ cells in peripheral blood) (refractory T-ALL cells; 25 mg/kg/d)	IC50 [2]	reduction in Survivin and Bcl-xL mRNA (Survivin and Bcl-xL mRNA)	leukemia cell apoptosis (T-ALL cells [3])	IC50 [4]	frequency of CD45+ in the BM (refractory T-ALL cells; 50 mg/kg/d)	circulating blasts (human CD45+ cells in peripheral blood) (refractory T-ALL cells; 50 mg/kg/d)	leukemia cell survival (leukemia cells)	potentiation of the activity of STATTIC (T-ALL cells [5])	potentiation of the activity of doxorubicin (T-ALL cells [5])
COC1=C(C=C(C)C(=O)N(C)C)C(=O)c2ccccc2C1=O [Example 5a]	> 250 mg/kg	disrupt	1 µM	5.5 µM	do not affect	do not affect	–	–	–	–	–	–	–	–	–	–	–
CCCC(=CC1=C(OC)C(=O)c2ccccc2C1=O)C(=O)N(CC)CC [Example 5c]	> 250 mg/kg	disrupt	1 µM	4.2 µM	do not affect	do not affect	marked decrease	significant reduction	–	–	–	–	–	–	–	–	–
CCCC(=CC1=C(OC)C(=O)c2ccccc2C1=O)C(=O)N(C)C [Example 5e]	> 250 mg/kg	disrupt	2 µM	5.5 µM	do not affect	do not affect	–	–	–	–	–	–	–	–	–	–	–
CCCCCCCCC/C(=C\C1=C(C)C(=O)C(OC)=C(OC)C1=O)C(=O)O [Example E3330]	> 250 mg/kg	disrupt	–	29.7 µM	do not affect	do not affect	–	–	10 to 30 µM	2-10 fold	significant leukemia cell apoptosis; also recorded: induces leukemia cell apoptosis	20 to 30 µM	marked decrease	significant reduction	markedly inhibits	potentiates	potentiates
